Each structure is given as a SMILES string.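 How tested: cells in 96-well plates exposed to compound for 48 hours at five concentrations. TGI: concentration producing complete growth inhibition.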

These results are taken from PubChem BioAssay (NCI).

Some test systems named below: UACC-62 melanoma; KM12 colon; SW-620 colon; UACC-257 melanoma; CAKI-1 renal; K-562 leukemia; PC-3 prostate; UO-31 renal; HS 578T breast; DU-145 prostate; A498 renal; HL-60(TB) leukemia; OVCAR-4 ovarian.
Common to all, as to test: NCI anticancer screen, dose series, 48 h

For the compound `O=C(/C=C1\C[C@H]2C=Nc3ccccc3C(=O)N2C1)NCCCCNC(=O)/C=C1\C[C@H]2C=Nc3ccccc3C(=O)N2C1`, the TGI in the experiment on UACC-62 melanoma is 29 µM; in the experiment with KM12 colon it was 33.3 µM; in the experiment with SW-620 colon, 7.58 µM; in the experiment on UACC-257 melanoma it was 27.1 µM; in the experiment on CAKI-1 renal, 6.4 µM; in the experiment with K-562 leukemia, greater than 33.5 µM. In addition, the TGI in the experiment on PC-3 prostate is 27.7 µM; in the experiment on UO-31 renal it was 5.77 µM; in the experiment with HS 578T breast, greater than 88.7 µM; in the experiment on DU-145 prostate, 29.7 µM; in the experiment on A498 renal, 32.9 µM; in the experiment with HL-60(TB) leukemia it was 12.6 µM. Besides, in the experiment with OVCAR-4 ovarian, the TGI came out at 26.1 µM.

As to `Oc1ccccc1C=Nc1ccc(-c2nc3ccccc3[nH]2)cc1`, the TGI in the experiment on KM12 colon, in the experiment on SW-620 colon, in the experiment with UACC-257 melanoma, with CAKI-1 renal, in the experiment with K-562 leukemia and in the experiment with PC-3 prostate was greater than 100 µM each time. Further, the TGI with UO-31 renal, with HS 578T breast, in the experiment on DU-145 prostate, in the experiment on A498 renal, in the experiment on HL-60(TB) leukemia and in the experiment on OVCAR-4 ovarian was greater than 100 µM throughout.

On to `OC[C@]1(n2nc3ccccc3n2)OC[C@@H]1c1ccccc1`, for which the TGI in the experiment with UACC-62 melanoma, in the experiment on KM12 colon, with UACC-257 melanoma, in the experiment with CAKI-1 renal, in the experiment with K-562 leukemia and in the experiment on PC-3 prostate was greater than 100 µM throughout. Moreover, the TGI in the experiment with UO-31 renal is greater than 100 µM; in the experiment with HS 578T breast, greater than 100 µM; in the experiment with DU-145 prostate it was greater than 100 µM; in the experiment with A498 renal it was greater than 100 µM; in the experiment on HL-60(TB) leukemia it was 93.9 µM; in the experiment on OVCAR-4 ovarian it was 70.7 µM.

For the compound `N#CC(=C1CCCCC1)c1nc2ccccc2o1`, the TGI in the experiment on UACC-62 melanoma, in the experiment on KM12 colon, with UACC-257 melanoma, with CAKI-1 renal, with K-562 leukemia and in the experiment with PC-3 prostate was greater than 100 µM in each case. Moreover, the TGI with UO-31 renal is greater than 100 µM; in the experiment with HS 578T breast it was greater than 100 µM; in the experiment with DU-145 prostate, greater than 100 µM; with A498 renal, greater than 100 µM; in the experiment with HL-60(TB) leukemia it was 75 µM; in the experiment with OVCAR-4 ovarian, greater than 100 µM.

As for `COc1ccc(/C=C2\CCC(C)/C(=C\c3ccc(OC)c(OC)c3)C2=O)cc1OC` (centres undefined), the TGI was 23.1 µM in the experiment with UACC-62 melanoma; 7.04 µM in the experiment on KM12 colon; greater than 100 µM in the experiment with SW-620 colon; 21.5 µM with UACC-257 melanoma; 21.6 µM with CAKI-1 renal; 67.3 µM with K-562 leukemia. Moreover, the TGI with PC-3 prostate came out at 23.4 µM; with UO-31 renal it was 23.3 µM; with HS 578T breast, 88.3 µM; in the experiment on DU-145 prostate, 21 µM; in the experiment with A498 renal it was 25.3 µM; in the experiment with HL-60(TB) leukemia, 5.93 µM.

Regarding `CN(C)CC1COC2Cc3ccccc3C1O2` (centres undefined), the TGI with UACC-62 melanoma, in the experiment on KM12 colon, in the experiment with UACC-257 melanoma, in the experiment with CAKI-1 renal, with K-562 leukemia and in the experiment with PC-3 prostate was greater than 100 µM in each case. In addition, the TGI in the experiment on UO-31 renal, in the experiment on HS 578T breast, with DU-145 prostate, with A498 renal, with HL-60(TB) leukemia and in the experiment on OVCAR-4 ovarian was greater than 100 µM throughout.

`CN1CCCCC(C#N)(c2ccccc2)CC1` (centres undefined): the TGI in the experiment on KM12 colon, in the experiment on SW-620 colon, in the experiment with UACC-257 melanoma, in the experiment on CAKI-1 renal, in the experiment with K-562 leukemia and with PC-3 prostate was greater than 100 µM in each case. Also, the TGI with UO-31 renal, with HS 578T breast, with DU-145 prostate, with A498 renal, in the experiment on HL-60(TB) leukemia and in the experiment on OVCAR-4 ovarian was greater than 100 µM in each case.

In the case of `O=C(N/N=C/c1ccc([N+](=O)[O-])o1)c1ccc(C(=O)N/N=C/c2ccc([N+](=O)[O-])o2)cc1`, the TGI in the experiment on UACC-62 melanoma, in the experiment on KM12 colon, with SW-620 colon, in the experiment with CAKI-1 renal, with K-562 leukemia and with PC-3 prostate was greater than 100 µM throughout. The TGI is greater than 100 µM in the experiment on UO-31 renal; greater than 100 µM with HS 578T breast; greater than 100 µM in the experiment with DU-145 prostate; greater than 100 µM in the experiment on A498 renal; 44.4 µM in the experiment on HL-60(TB) leukemia; greater than 100 µM in the experiment with OVCAR-4 ovarian.

In the case of `COc1cc(C)cc2c1c(=O)c1ccccc1n2C`, the TGI is 62.5 µM in the experiment on UACC-62 melanoma; greater than 100 µM with KM12 colon; greater than 100 µM in the experiment with SW-620 colon; greater than 100 µM with UACC-257 melanoma; greater than 100 µM in the experiment on CAKI-1 renal; 39.4 µM in the experiment on K-562 leukemia. Besides, the TGI in the experiment with PC-3 prostate was greater than 100 µM; in the experiment with HS 578T breast, 78.9 µM; with DU-145 prostate it was greater than 100 µM; in the experiment with A498 renal, 89.2 µM; in the experiment with HL-60(TB) leukemia, 83.3 µM; with OVCAR-4 ovarian, greater than 100 µM.
